The record followed here is ChEMBL document CHEMBL5120822, “Inhibition of the P2X7/NLRP3 Inflammasome Signaling Pathway by Deacetylgedunin from Toona sinensis” (J Nat Prod, 2022).

Data set [1] relates to THP-1. The data set is described as follows: Cytotoxicity against human THP-1 cells derived macrophage assessed as reduction in cell viability upto 40 uM incubated for 24 hrs by CCK-8 assay. In kind it is toxicity, cell-based. The note with it: thp-1, 24 h. (In general: Formazan colour is commonly taken as a measure of viable cells.)
Data set [2] has as its target NACHT, LRR and PYD domains-containing protein 3 (Homo sapiens) (UniProt Q96P20). The experiment in a line: Inhibition of NLRP3 inflammasome activation in LPS/ATP-induced human THP-1 cells assessed as suppression of P2X7 expression at 5 to 20 uM preincubated for 1 hrs followed by LPS for 12 hrs and ATP 0.5 hrs in presence of A438079 by Western blot analysis. The following applies: dose 5-20 µM, time 13.5 hrs. It is filed as cell-based.

For data set [3] the target is unchanged. The data set is described as follows: Inhibition of NLRP3 inflammasome activation in PMA-differentiated and LPS/MSU-stimulated human THP-1 cells assessed as decrease in pro-IL-1beta expression at 20 uM incubated for 1 hrs followed by LPS stimulation for 12 hrs and MSU addition for 6 hrs by western blot analysis. In kind it is cell-based. The following applies: time 19.0 hrs. A general note: A western blot detects proteins with antibodies after separation by electrophoresis.

The subject of data set [4] is THP-1. The experiment in a line: Antiinflammatory activity against PMA-differentiated and LPS/ATP stimulated human THP-1 cells assessed as increase in cell viability at 5 to 20 uM incubated for 1 hrs followed by LPS stimulation for 12 hrs and ATP addition for 0.5 hrs by LDH assay. In kind it is functional, cell-based. The note with it: dose 5-20 µM, time 13.5 hrs.
The target in data set [5] is NACHT, LRR and PYD domains-containing protein 3 (Homo sapiens) (UniProt Q96P20). The data set is described as follows: Inhibition of NLRP3 inflammasome activation in PMA-differentiated and LPS/ATP-stimulated human THP-1 cells assessed as assessed as increase in potassium ion concentration at 5 to 20 uM incubated for 1 hrs followed by LPS stimulation for 12 hrs and ATP addition for 0.5 hrs by EPG-2 AM staining based confocal microscopy. It is filed as cell-based. The following applies: dose 5-20 µM, time 13.5 hrs.

The test system of data set [6] is THP-1. The data set is described as follows: Cytotoxicity against human THP-1 cells assessed as survival rate at < 40 uM by CCK8 assay. It is filed as toxicity, cell-based. The following applies: thp-1, 40 µM.
The target of data set [7] is NACHT, LRR and PYD domains-containing protein 3 (Homo sapiens) (UniProt Q96P20). The data set is described as follows: Inhibition of NLRP3 inflammasome activation in PMA-differentiated and LPS/ATP-stimulated human THP-1 cells assessed as inhibition of IL-6 secretion at 20 uM incubated for 1 hrs followed by LPS stimulation for 12 hrs and ATP addition for 0.5 hrs by ELISA. It is filed as cell-based. The note with it: time 13.5 hrs. For orientation: In an ELISA, binding on a coated surface is turned into a signal by an enzyme label.

For data set [8] the target is unchanged. The experiment in a line: Inhibition of NLRP3 inflammasome activation in PMA-differentiated and LPS/ATP-stimulated human THP-1 cells assessed as decrease in IL-1beta expression at 5 to 20 uM incubated for 1 hrs followed by LPS stimulation for 12 hrs and ATP addition for 0.5 hrs by western blot analysis. In kind it is cell-based. The following applies: dose 5-20 µM, time 13.5 hrs.

The test system of data set [9] is THP-1. The experiment in a line: Antiinflammatory activity against PMA-differentiated and LPS/ATP stimulated human THP-1 cells assessed as increase in cell viability at 5 to 20 uM incubated for 1 hrs followed by LPS stimulation for 12 hrs and ATP addition for 0.5 hrs by CCK8 assay. In kind it is functional, cell-based. The following applies: dose 5-20 µM, time 13.5 hrs.

In data set [10] the target is NACHT, LRR and PYD domains-containing protein 3 (Homo sapiens) (UniProt Q96P20). The experiment in a line: Inhibition of NLRP3 inflammasome activation in PMA-differentiated and LPS/ATP-stimulated human THP-1 cells assessed as decrease in caspase-1 expression at 5 to 20 uM incubated for 1 hrs followed by LPS stimulation for 12 hrs and ATP addition for 0.5 hrs by western blot analysis. It is filed as cell-based. The following applies: dose 5-20 µM, time 13.5 hrs.

The subject of another data set is RAW264.7. The data set is described as follows: Cytotoxicity against mouse RAW264.7 cells derived macrophage assessed as reduction in cell viability upto 40 uM incubated for 24 hrs by CCK-8 assay. In kind it is toxicity, cell-based. The note with it: raw264.7, 24 h.
A further data set deals with J774.A1. The experiment in a line: Antiinflammatory activity against LPS/ATP-stimulated […] cells assessed as inhibition of ROS release at 20 uM incubated for 1 hrs followed by LPS stimulation for 12 hrs and ATP addition for 0.5 hrs by DCFH-DA staining based confocal microscopy. In kind it is functional, cell-based. The following applies: Mus musculus, time 13.5 hrs.

Data set [11] has as its target NACHT, LRR and PYD domains-containing protein 3 (Homo sapiens) (UniProt Q96P20). The data set is described as follows: Inhibition of NLRP3 inflammasome activation in PMA-differentiated and LPS/ATP-stimulated human THP-1 cells assessed as reduction in total NF-KappaB P65 nuclear expression at 5 to 20 uM incubated for 1 hrs followed by LPS stimulation for 12 hrs and ATP addition for 0.5 hrs by Western blot analysis. In kind it is cell-based. The following applies: dose 5-20 µM, time 13.5 hrs.

Data set [12] shares this target. The data set is described as follows: Inhibition of NLRP3 inflammasome activation in PMA-differentiated and LPS/ATP-stimulated human THP-1 cells assessed as suppression of P2X7 expression at 5 to 20 uM incubated for 1 hrs followed by LPS stimulation for 12 hrs and ATP addition for 0.5 hrs by Western blot analysis. It is filed as cell-based. The note with it: dose 5-20 µM, time 13.5 hrs, DDE = dose-dependent effect.

The target is the same in data set [13]. The data set is described as follows: Inhibition of NLRP3 inflammasome activation in PMA-differentiated and LPS/ATP-stimulated human THP-1 cells assessed as assessed as increase in intracellular chloride concentration at 20 uM incubated for 1 hrs followed by LPS stimulation for 12 hrs and ATP addition for 0.5 hrs by MQAE staining based flow cytometry. It is filed as cell-based. The following applies: time 13.5 hrs.

For data set [14] the target is unchanged. The data set is described as follows: Inhibition of NLRP3 inflammasome activation in PMA-differentiated and LPS/MSU-stimulated human THP-1 cells assessed as decrease in pro-caspase-1 expression at 20 uM incubated for 1 hrs followed by LPS stimulation for 12 hrs and MSU addition for 6 hrs by western blot analysis. The note with it: time 19.0 hrs. In kind it is cell-based.

In another data set the test system is J774.1. The data set is described as follows: Cytotoxicity against mouse J774.1 cells derived macrophage assessed as reduction in cell viability upto 40 uM incubated for 24 hrs by CCK-8 assay. In kind it is toxicity, cell-based. The note with it: j774.1, 24 h.
For data set [15], the target named is NACHT, LRR and PYD domains-containing protein 3 (Homo sapiens) (UniProt Q96P20). The experiment in a line: Inhibition of NLRP3 inflammasome activation in PMA-differentiated and LPS/ATP-stimulated human THP-1 cells assessed as inhibition of IL-1beta secretion at 5 to 20 uM incubated for 1 hrs followed by LPS stimulation for 12 hrs and ATP addition for 0.5 hrs by ELISA. The note with it: dose 5-20 µM, time 13.5 hrs, DDE = dose-dependent effect. In kind it is cell-based.

The target is the same in data set [16]. The experiment in a line: Inhibition of NLRP3 inflammasome activation in PMA-differentiated and LPS/NIG-stimulated human THP-1 cells assessed as inhibition of IL-1beta secretion at 20 uM incubated for 1 hrs followed by LPS stimulation for 12 hrs and NIG addition for 2 hrs by ELISA. The following applies: time 15.0 hrs. In kind it is cell-based.
For data set [17], the system named is THP-1. The data set is described as follows: Antiinflammatory activity against PMA-differentiated and LPS/MSU stimulated human THP-1 cells assessed as increase in cell viability at 5 to 20 uM incubated for 1 hrs followed by LPS stimulation for 12 hrs and MSU addition for 6 hrs by CCK8 assay. It is filed as functional, cell-based. The note with it: dose 5-20 µM, time 19.0 hrs.

SMILES strings stand for the structures. Calls of active or inactive are those of the source. No cut-off for these calls is given here.

Chain of NACHT, LRR and PYD domains-containing protein 3 (Homo sapiens) (Q96P20 whole entry, the tested form may be a part): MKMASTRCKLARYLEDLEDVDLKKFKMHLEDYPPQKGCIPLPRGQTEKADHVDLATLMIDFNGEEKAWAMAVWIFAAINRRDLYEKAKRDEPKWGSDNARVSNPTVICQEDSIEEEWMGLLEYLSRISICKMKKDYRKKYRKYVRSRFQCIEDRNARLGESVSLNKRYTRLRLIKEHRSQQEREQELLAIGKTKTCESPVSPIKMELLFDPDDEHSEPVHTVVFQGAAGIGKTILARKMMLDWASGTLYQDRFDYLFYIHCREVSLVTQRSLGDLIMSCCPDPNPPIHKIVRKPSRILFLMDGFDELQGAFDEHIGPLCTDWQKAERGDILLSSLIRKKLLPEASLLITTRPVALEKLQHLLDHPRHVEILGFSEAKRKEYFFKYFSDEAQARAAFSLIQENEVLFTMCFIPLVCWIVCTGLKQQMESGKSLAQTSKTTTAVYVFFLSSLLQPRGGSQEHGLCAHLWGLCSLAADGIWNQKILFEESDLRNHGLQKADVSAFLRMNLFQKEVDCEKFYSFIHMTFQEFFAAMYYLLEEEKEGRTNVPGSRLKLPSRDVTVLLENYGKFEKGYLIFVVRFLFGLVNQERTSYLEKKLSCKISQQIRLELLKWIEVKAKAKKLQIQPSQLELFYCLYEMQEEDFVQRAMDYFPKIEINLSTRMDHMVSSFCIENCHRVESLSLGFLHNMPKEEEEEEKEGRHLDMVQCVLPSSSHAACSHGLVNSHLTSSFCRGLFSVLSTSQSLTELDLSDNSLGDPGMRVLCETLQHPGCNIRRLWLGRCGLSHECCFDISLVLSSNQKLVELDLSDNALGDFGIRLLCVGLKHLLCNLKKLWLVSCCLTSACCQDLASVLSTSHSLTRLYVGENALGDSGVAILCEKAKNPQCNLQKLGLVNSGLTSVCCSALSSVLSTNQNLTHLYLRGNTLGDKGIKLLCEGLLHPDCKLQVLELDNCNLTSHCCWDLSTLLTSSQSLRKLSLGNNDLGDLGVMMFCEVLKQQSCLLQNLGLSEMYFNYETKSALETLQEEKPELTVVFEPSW

Turning to `CC1(C)C(=O)C=C[C@]2(C)[C@H]3CC[C@@]4(C)[C@H](c5ccoc5)OC(=O)[C@H]5O[C@]54[C@]3(C)[C@H](O)C[C@@H]12` [DEACETYLGEDUNIN], the Activity entry with THP-1 [1], with THP-1 [6], in the data set on RAW264.7 and in the data set on J774.1 was “Non-Toxic” in each case. The inhibition result in [2], in data set [3], in [5], in data set [7], in data set [8] and in data set [10] was “Active” throughout. Also, the inhibition result in [11], in data set [13], in data set [14] and in data set [16] was “Active” throughout. Further, the result with THP-1 [4], in the data set on THP-1 [9], in the data set on J774.A1 and in the data set on THP-1 [17] was Active. The inhibition result in [12] and in [15] was “Dde” throughout.
